{"source": "patent US20210161188A1", "about": "“POLYMETHOXYFLAVONES AS SWEETNESS ENHANCERS” (Firmenich SA, priority 2018, published 2021)", "type_in_all_cases": "in vivo, human", "key": {"[1]": {"system": "sweetness of a reference water solution containing 4% sucrose (sucrose base)", "test": "Sensory panel of 25 trained panelists, sweet taste modifying effect in 4% sucrose, with nose-clip", "details": "for enhancement of the sweetness of the sucrose base (in words): 5 ppm; for sweetness, With nose-clip (NC) / Significant level Student test (NC): 5 ppm in 4% sucrose; for sweetness, With nose-clip (NC): scale of −5 (strong masking) to 5 (strong enhancing), 0 = sucrose base; for Significant level Student test (NC): sweetness, with nose-clip", "from_the_text": "(§1) The taste of a sample of a composition according to several aspects presented herein, with regard to sweetness and/or sweetness enhancing properties, may be assessed in vivo by using a panel of trained sensory evaluators experienced in the sweet taste estimation procedure, e.g. in the sensory assay described e.g. in Examples 1 and 2, using a test base comprising a 4% sucrose solution, or similar composition.\n(§2) In sensory studies, panelists are asked to take a sample of the liquid to be assessed (test substance, e.g. the test base comprising a composition according to several aspects presented herein) into the mouth and after some time allowed for taste perception, to spit the sample out completely. Subsequently, the panelists are asked to rinse their mouth well with water or black tea to reduce any potential carry over effects. The tasting of a sample can be repeated if required.\nSensory Evaluations: A sensory panel consisted of 25 trained panelists. The panelists were asked to evaluate the sweet taste modifying effect of the isolated individual polymethoxyflavones in a reference water solution containing 4% sucrose. The panelists evaluated samples containing TMS, HMQ, NOB, HMF, TAN and SIN (all at 5 ppm), and a mixture comprising a mixture of polymethoxyflavones (PMF mixture at 10 ppm), for taste properties (sweet) on a scale of −5 to 5 (−5 denoted strong masking effect and 5 denoted strong enhancing effect, 0 being the intensity of a reference water solution containing 4% sucrose—referred to herein as the sucrose base)."}, "[2]": {"system": "sweetness of a reference water solution containing 4% sucrose (sucrose base)", "test": "Additional sensory evaluation, 8 trained panelists, dose series in 4% sucrose", "from_the_text": "as §1, §2\nAdditional Sensory Evaluations: A sensory panel consisted of 8 trained panelists. The panelists were asked to evaluate the sweet taste modifying effect of 0.001, 0.1, 1, 2, and 20 ppm of either TMS, HMQ, or NOB in a reference water solution containing 4% sucrose, on a scale of −5 to 5 (−5 denoted strong masking effect and 5 denoted strong enhancing effect, 0 being the intensity of a reference water solution containing 4% sucrose—referred to herein as the sucrose base)."}, "[3]": {"system": "sweetness of reduce sugar fruit tea beverage", "test": "Additional sensory evaluation, 8 trained panelists, fruit tea beverage", "set-up": "significance of sweetness enhancement: key to the marks not given beside the values", "from_the_text": "as §1, §2\nAdditional Sensory Evaluations: A sensory panel consisted of 8 trained panelists. The panelists were asked to evaluate the sweet taste modifying effect of 0.001, 2 and 20 ppm of PMF mixture and 0.2 ppm of TMS, 0.1 ppm of HMQ, and 0.3 ppm of the mixture of TMS and HMQ at ratio of 2 to 1 in a reference low sugar fruit tea beverage solution as well as standard sugar fruit tea beverage solution."}, "[4]": {"system": "sweetness of a reference water solution containing 4% sucrose", "test": "Additional sensory evaluation, 8 trained panelists, TMS, HMQ and TMS:HMQ mixtures in different ratio", "details": "for significance of sweetness enhancement: Low sugar beverage (4% sucrose)", "from_the_text": "as §1, §2\nA sensory panel consisted of 8 trained panelists. The panelists were asked to evaluate the sweet taste modifying effect of 0.5, 1, 2 ppm of either TMS or HMQ as well as 1, 1.5, 2 ppm of TMS and HMQ mixture in different ratio in a reference water solution containing 4% sucrose."}, "[5]": {"details": "at 0.1 and 0.001 ppm in 4% sucrose"}, "[6]": {"details": "at doses less than or equal to 2 ppm in 4% sucrose"}}}
{"molecule": "COc1ccc(-c2oc3c(OC)c(OC)c(OC)c(OC)c3c(=O)c2OC)cc1OC", "note": "[HMF, 3,5,6,7,8,3′,4′-heptamethoxyflavone]", "values": [{"measurement": "enhancement of the sweetness of the sucrose base (in words)", "setting": "[1]", "value": "Neither HMF, nor SIN had any observable enhancement of sweetness"}, {"measurement": "sweetness, With nose-clip (NC)", "setting": "[1]", "value": 0.21}]}
{"molecule": "COc1ccc(-c2oc3cc(OC)c(OC)c(OC)c3c(=O)c2OC)cc1OC", "note": "[HMQ, 3,5,6,7,3′,4′-hexamethoxyflavone]", "values": [{"measurement": "significance of sweetness enhancement", "setting": "[2]; 0.001 ppm in 4% sucrose", "value": "+++"}, {"measurement": "significance of sweetness enhancement", "setting": "[2]; 0.1 ppm in 4% sucrose", "value": "++"}, {"measurement": "significance of sweetness enhancement", "setting": "[2]; 2 ppm in 4% sucrose", "value": "++"}, {"measurement": "sweetness enhancement effect (in words)", "setting": "[2]; [5]", "value": "significant sweetness enhancement effect"}, {"measurement": "sweetness enhancement effect (in words)", "setting": "[2]; [6]", "value": "better sweetness enhancement effect"}, {"measurement": "enhancement of the sweetness of the sucrose base (in words)", "setting": "[1]", "value": "significantly enhance the sweetness of the sucrose base"}, {"measurement": "Significant level Student test (NC)", "setting": "[1]", "value": "++"}, {"measurement": "sweetness, With nose-clip (NC)", "setting": "[1]", "value": 0.57}, {"measurement": "sweetness enhancement effect (in words)", "setting": "[3]; 0.1 ppm in reduce sugar fruit tea beverage", "value": "did not show the sweetness enhancement effect"}, {"measurement": "significance of sweetness enhancement", "setting": "[4]; 0.5 ppm", "value": "++"}, {"measurement": "sweetness enhancement effect (in words)", "setting": "[4]; 1 ppm", "value": "did not show any observable sweetness enhancement effect"}, {"measurement": "significance of sweetness enhancement", "setting": "[4]; 2 ppm", "value": "++"}]}
{"molecule": "COc1ccc(-c2cc(=O)c3c(OC)c(OC)c(OC)c(OC)c3o2)cc1OC", "note": "[NOB, 5,6,7,8,3′,4′-hexamethoxyflavone, reference compound]", "values": [{"measurement": "significance of sweetness enhancement", "setting": "[2]; 0.001 ppm in 4% sucrose", "value": "++"}, {"measurement": "sweetness enhancing properties (in words)", "setting": "[2]; 0.001 to 20 ppm in 4% sucrose, in contrast to TMS and HMQ", "value": "less significant"}, {"measurement": "significance of sweetness enhancement", "setting": "[2]; 1 ppm in 4% sucrose", "value": "++"}, {"measurement": "significance of sweetness enhancement", "setting": "[2]; 20 ppm in 4% sucrose", "value": "++"}, {"measurement": "enhancement of the sweetness of the sucrose base (in words)", "setting": "[1]", "value": "significantly enhance the sweetness of the sucrose base"}, {"measurement": "Significant level Student test (NC)", "setting": "[1]", "value": "++"}, {"measurement": "sweetness, With nose-clip (NC)", "setting": "[1]", "value": 0.37}]}
{"molecule": "COc1ccc(-c2cc(=O)c3c(OC)c(OC)c(OC)cc3o2)cc1OC", "note": "[SIN, 5,6,7,3′,4′-pentamethoxyflavone]", "values": [{"measurement": "enhancement of the sweetness of the sucrose base (in words)", "setting": "[1]", "value": "Neither HMF, nor SIN had any observable enhancement of sweetness"}, {"measurement": "sweetness, With nose-clip (NC)", "setting": "[1]", "value": 0.17}]}
{"molecule": "COc1ccc(-c2cc(=O)c3c(OC)c(OC)c(OC)c(OC)c3o2)cc1", "note": "[TAN, 5,6,7,8,4′-pentamethoxyflavone]", "values": [{"measurement": "enhancement of the sweetness of the sucrose base (in words)", "setting": "[1]", "value": "negative effect of sweetness"}, {"measurement": "Significant level Student test (NC)", "setting": "[1]", "value": "−"}, {"measurement": "sweetness, With nose-clip (NC)", "setting": "[1]", "value": "−0.30"}]}
{"molecule": "COc1ccc(-c2cc(=O)c3c(OC)c(OC)c(OC)cc3o2)cc1", "note": "[TMS, 5,6,7,4′-tetramethoxyflavone]", "values": [{"measurement": "significance of sweetness enhancement", "setting": "[2]; 0.001 ppm in 4% sucrose", "value": "++"}, {"measurement": "significance of sweetness enhancement", "setting": "[2]; 0.1 ppm in 4% sucrose", "value": "++"}, {"measurement": "significance of sweetness enhancement", "setting": "[2]; 1 ppm in 4% sucrose", "value": "++"}, {"measurement": "significance of sweetness enhancement", "setting": "[2]; 2 ppm in 4% sucrose", "value": "+"}, {"measurement": "sweetness enhancement effect (in words)", "setting": "[2]; [5]", "value": "significant sweetness enhancement effect"}, {"measurement": "sweetness enhancement effect (in words)", "setting": "[2]; [6]", "value": "better sweetness enhancement effect"}, {"measurement": "enhancement of the sweetness of the sucrose base (in words)", "setting": "[1]", "value": "significantly enhance the sweetness of the sucrose base"}, {"measurement": "Significant level Student test (NC)", "setting": "[1]", "value": "++"}, {"measurement": "sweetness, With nose-clip (NC)", "setting": "[1]", "value": 0.55}, {"measurement": "significance of sweetness enhancement", "setting": "[3]; +0.2 ppm in reduce sugar fruit tea beverage", "value": "++"}, {"measurement": "significance of sweetness enhancement", "setting": "[4]; 1 ppm", "value": "++"}, {"measurement": "significance of sweetness enhancement", "setting": "[4]; 2 ppm", "value": "+"}]}
